Experimental data reported in US20100234435A1, “CYCLOALKYLAMINO ACID DERIVATIVES” (priority 2007, published 2010).
Structures can show the parent of a compound that is named as a salt.

Experiments:
S1P1 = target: T1, S1P1 (Homo sapiens, UniProt P21453); assay: Radioligand binding assay, 33P-S1P labelled S1P1 receptor; conditions: 33P-S1P labelled receptors
T1 construct: expressed in transfected cells; membranes
Protocol: (§1) HEK293 or CHO cells expressing S1P1-5, are prepared in ˜0.5×10^5 cells/well. Cells are plated into each well of a 6-well plate in 2 ml of growth media (OptiMEM, Invitrogen). Two micrograms receptor plasmid DNA is mixed in 200 ul OptiMEM, and combined with 6 ul Lipofectamine (2000-9, Invitrogen). The mixture is added drop wise to 2 ml of growth media covering the cells in each well. The cells are allowed to transfect for 8-18 hours at room temperature. The OptiMEM transfection medium is replaced with 2 ml fresh serum-containing medium an incubated for 48 hours. The cells are diluted 1:10 in selection media (OptiMEM. Invitrogen) containing 0.8 mg/ml G418 in 10 cm dishes. Colonies are allowed to form (˜1-2 weeks), and 12 colonies from each dish are independently harvested with cloning disks and placed into 24-well plates.
(§2) Cell membranes from CHO-S1P1-5 or HEK-S1P1-5 transfected cells are prepared by homogenizing the cells in an ice cold solution containing 25 mM Tris, 5 mM EDTA, 5 mM EGTA, and Complete Protease Inhibitor Cocktail, EDTA-Free (Roche #1 873 580). Cells are lysed by dounce homogenization and centrifugation at 20,000×g for 20 minutes at 4° C. Membrane pellets are resuspended in the same buffer and centrifuged again at 20,000×g for 20 minutes at 4° C. Final membrane pellet is resuspended in 20 mM HEPES, pH 7.5, 5 mM MgCl2, 1 mM CaCl2. Protein concentration is determined using the Micro BCA protein assay (Pierce #23235).
(§3) Serial dilutions of test compounds in DMSO are prepared in 96 well polypropylene plates. Using the FX robot 1:50 intermediate dilutions are made to assay buffer (20 mM HEPES, pH 7.5, 5 mM MgCl2, 1 mM CaCl2, 4 mg/ml fatty-acid free BSA). This intermediate is further diluted 1:10 to the final assay reaction. Final DMSO concentration in the reaction is 0.2%. Final reaction contains 50 pM ^33P-S1P (Perkin Elmer; Special Order), and 2.5 μg of cell membranes. The reaction is incubated at room temperature for 30 minutes and stopped by filtration through GF/B UniFilter Plates (Perkin Elmer #6005177) and washed four times with wash buffer containing 50 mM Tris pH 7.4, 0.025% Tween-20. The filter plates are dried for approximately 20 minutes in an oven at 50° C. Back seals are adhered to the filter plates and 40 μl of Microscint-20 scintillation fluid is added (Perkin Elmer #6013621). The filter plates are sealed, shaken for 30 minutes at room temperature, and counted on a Top Count (PerkinElmer).

S1P4 = target: T2, S1P4 (Homo sapiens, UniProt O95977); assay: Radioligand binding assay, 33P-S1P labelled S1P4 receptor; conditions: 33P-S1P labelled receptors
T2 construct: expressed in transfected cells; membranes
T2 sequence (O95977 1-384): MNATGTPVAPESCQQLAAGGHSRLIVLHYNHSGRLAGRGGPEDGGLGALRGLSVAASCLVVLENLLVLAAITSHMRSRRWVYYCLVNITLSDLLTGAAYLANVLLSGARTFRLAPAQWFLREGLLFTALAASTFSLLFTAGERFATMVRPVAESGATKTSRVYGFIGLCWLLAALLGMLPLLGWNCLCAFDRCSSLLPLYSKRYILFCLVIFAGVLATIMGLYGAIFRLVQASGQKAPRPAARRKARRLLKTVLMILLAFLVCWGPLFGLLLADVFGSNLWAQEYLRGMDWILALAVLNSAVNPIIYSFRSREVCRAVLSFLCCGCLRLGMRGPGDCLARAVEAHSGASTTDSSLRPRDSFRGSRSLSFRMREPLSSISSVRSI
Protocol: as §1, §2, §3

S1P3 = target: T3, S1P3 (Homo sapiens, UniProt Q99500); assay: Radioligand binding assay, 33P-S1P labelled S1P3 receptor; conditions: 33P-S1P labelled receptors
T3 construct: expressed in transfected cells; membranes
Protocol: as §1, §2, §3

[1] = Terminal half life and clearance from blood samples; assay type: in vivo, CD1 mice; conditions: CD1, mouse, oral; for clearance: read-out: Cl (ml/min/kg) (clearance)
Source text: Agonium of S1P1 results in S1P1 internalization, inhibiting lymphocyte egress into circulation, and is clinically presented as lymphopenia (Chiba, Pharmacology & Therapeutics 2005; 108,308-319, 2005). The following protocol may be used to assess the potential induction of lymphopenia for the test compounds when administered as a single oral dose to CD1 mice.
A suspension of 5% Gelucire may be used as the vehicle to prepare dosing formulations and to dose vehicle control animals. Test compound is weighed and transferred to a 15 mL Falcon tube or equivalent to make stock formulations. The appropriate amount of 5% Gelucire vehicle is then added to the tube. The resulting formulation is sonicated with a probe sonicator until no obvious particulate matter is apparent. About 500 mL Gelucire (Gattefosse, St-Priest, Cedex, France) is melted in a 1000 W microwave oven set for 3 minutes on high power. The appropriate amount of Gelucire is added to deionized water to form 5% (vol/vol) aqueous Gelucire.
Blood samples (˜0.6-0.8 mL) may be collected via intracardiac puncture at appropriate time points. The mice are anesthetized by carbon dioxide and euthanized via exanguination by intracardiac puncture. Blood samples are obtained and placed in tubes containing EDTA. Lymphocytes (L, %) count is measured with Abbott Cell-Dyn 3700 automated analyzer.
Samples of blood were taken to determine terminal half life (T½) and clearance of the compounds, using well accepted methods for such assays.

S1P2 = target: T4, S1P2 (Homo sapiens, UniProt O95136); assay: Radioligand binding assay, 33P-S1P labelled S1P2 receptor; conditions: 33P-S1P labelled receptors
T4 construct: expressed in transfected cells; membranes
Protocol: as §1, §2
(§4) Serial dilutions of test compounds in DMSO are prepared in 96 well polypropylene plates. Using the FX robot 1:50 intermediate dilutions are made to assay buffer (20 mM HEPES, pH 7.5, 5 mM MgCl2, 1 mM CaCl2, 4 mg/ml fatty-acid free BSA). This intermediate is further diluted 1:10 to the final assay reaction. Final DMSO concentration in the reaction is 0.2%. […] The filter plates are sealed, shaken for 30 minutes at room temperature, and counted on a Top Count (PerkinElmer).

S1P5 = target: T5, S1P5 (Homo sapiens, UniProt Q9H228); assay: Radioligand binding assay, 33P-S1P labelled S1P5 receptor; conditions: 33P-S1P labelled receptors
T5 construct: expressed in transfected cells; membranes
Protocol: as §1, §2, §4

T1 sequence (P21453 whole entry): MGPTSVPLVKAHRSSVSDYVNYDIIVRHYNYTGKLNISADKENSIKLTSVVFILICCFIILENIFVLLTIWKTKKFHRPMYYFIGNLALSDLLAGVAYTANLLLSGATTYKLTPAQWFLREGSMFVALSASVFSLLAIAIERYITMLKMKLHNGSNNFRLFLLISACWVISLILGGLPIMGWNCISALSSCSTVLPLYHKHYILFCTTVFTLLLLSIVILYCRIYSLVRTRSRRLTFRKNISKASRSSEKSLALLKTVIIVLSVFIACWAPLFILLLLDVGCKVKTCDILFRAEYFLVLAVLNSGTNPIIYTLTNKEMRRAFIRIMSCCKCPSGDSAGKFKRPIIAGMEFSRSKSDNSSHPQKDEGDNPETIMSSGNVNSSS
T4 sequence (O95136 whole entry): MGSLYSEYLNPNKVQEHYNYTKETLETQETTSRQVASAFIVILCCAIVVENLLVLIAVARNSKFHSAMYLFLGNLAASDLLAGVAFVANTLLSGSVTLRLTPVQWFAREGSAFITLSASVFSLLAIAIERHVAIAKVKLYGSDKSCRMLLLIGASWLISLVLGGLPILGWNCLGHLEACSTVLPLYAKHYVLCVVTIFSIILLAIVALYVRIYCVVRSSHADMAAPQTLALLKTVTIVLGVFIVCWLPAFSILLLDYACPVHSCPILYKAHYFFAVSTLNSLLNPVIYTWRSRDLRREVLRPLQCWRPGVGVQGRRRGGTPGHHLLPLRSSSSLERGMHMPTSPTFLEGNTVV
T5 sequence (Q9H228 whole entry): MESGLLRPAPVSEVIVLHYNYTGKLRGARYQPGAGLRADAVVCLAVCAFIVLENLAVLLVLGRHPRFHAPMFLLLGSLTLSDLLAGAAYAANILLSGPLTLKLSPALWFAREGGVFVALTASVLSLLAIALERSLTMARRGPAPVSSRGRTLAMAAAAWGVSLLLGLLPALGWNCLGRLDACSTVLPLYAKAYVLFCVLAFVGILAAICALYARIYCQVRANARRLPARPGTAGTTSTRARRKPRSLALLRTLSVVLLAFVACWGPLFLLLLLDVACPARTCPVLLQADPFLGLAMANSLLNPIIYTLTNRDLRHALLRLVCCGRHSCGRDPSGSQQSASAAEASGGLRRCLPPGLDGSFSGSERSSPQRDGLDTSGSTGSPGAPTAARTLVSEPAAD
T3 sequence (Q99500 whole entry): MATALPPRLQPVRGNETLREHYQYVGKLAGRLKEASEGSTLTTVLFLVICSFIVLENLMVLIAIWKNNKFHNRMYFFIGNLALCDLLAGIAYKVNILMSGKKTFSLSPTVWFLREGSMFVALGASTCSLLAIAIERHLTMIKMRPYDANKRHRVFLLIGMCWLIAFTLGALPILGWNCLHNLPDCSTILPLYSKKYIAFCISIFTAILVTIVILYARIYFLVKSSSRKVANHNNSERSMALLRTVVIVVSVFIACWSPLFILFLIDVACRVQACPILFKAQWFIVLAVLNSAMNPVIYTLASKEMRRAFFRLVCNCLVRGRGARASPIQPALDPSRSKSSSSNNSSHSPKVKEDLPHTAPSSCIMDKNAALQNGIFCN

Row | Ki (S1P1) [nM] | IC50 (S1P4) [nM] | IC50 (S1P3) [nM] | half-life [1] [h] | clearance [1] [mL/min/kg] | IC50 (S1P2) [nM] | IC50 (S1P5) [nM] | Compound
1 | 0.16 | 15 | 7.1 | – | – | – | – | CCCCCCCCCCCCC/C=C/[C@@H](O)[C@@H](N)COP(=O)(O)O [Example S1P, sphingosine-1-phosphate, reference compound]
2 | 0.29 | 35 | > 1000 | 5.2 | 6 | > 1000 | 2.9 | CC(C)Cc1ccc(-c2nc(-c3ccc([C@@H](C)N[C@H]4C[C@@H](C(=O)O)C4)cc3)no2)cc1 [cis-3-{[(1R)-1-{4-[5-(4-Isobutylphenyl)-1,2,4-oxadiazol-3-yl]phenyl}ethyl]amino}cyclobutanecarboxylic acid]
3 | 2.7 | 331 | > 1000 | 6.7 | 5.11 | > 1000 | 11 | CC(C)Cc1ccc(-c2nc(-c3ccc([C@H](C)N[C@H]4C[C@@H](C(=O)O)C4)cc3)no2)cc1 [cis-3-{[(1S)-1-{4-[5-(4-isobutylphenyl)-1,2,4-oxadiazol-3-yl]phenyl}ethyl]amino}cyclobutanecarboxylic acid, hydrochloride salt]
4 | 4.6 | 438 | > 1000 | – | – | > 1000 | 15 | CC(C)Cc1ccc(-c2nc(-c3ccc([C@@H](C)N[C@H]4C[C@H](C(=O)O)C4)cc3)no2)cc1 [trans-3-{[(1R)-1-{-4-[5-(4-Isobutylphenyl)-1-1,2,4-oxadiazol-3-yl]phenyl}ethyl]amino}cyclobutanecarboxylic acid]
